The supplement of paper PMC10307832

How the values were obtained:
Assay in all cases: relative viability (nuclei count vs DMSO), 5 days (fraction); higher = more cells survive
[1] = compound: C/C(=N\NC(=S)N1CCC1)/C2=CC=CC=N2 + O=C(c1cc(Cc2n[nH]c(=O)c3ccccc23)ccc1F)N1CCN(C(=O)C2CC2)CC1 [Olaparib] (partner 8 µM)
Method in brief: (§1)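 Lung cancer cell lines in 1536-well plates were dosed by pin tool the day after seeding, either with one drug alone or with a fixed anchor-drug dose plus five library-drug doses (not always all listed) in √10 steps. After 5 days, cells were fixed and their nuclei stained in one step (final 0.05% Triton X-100, 1% formaldehyde, 1 ug/ml Hoechst), then counted on 4× images. Relative viability is the nuclei count in treated wells divided by that in vehicle wells. Values are medians of duplicate plates.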

[2] = compound: C/C(=N\NC(=S)N1CCC1)/C2=CC=CC=N2 + NC(=O)Nc1cc(-c2cccc(F)c2)sc1C(=O)N[C@H]1CCCNC1 [AZD7762] (partner 0.2 µM)
Method in brief: as §1

[3] = compound: C/C(=N\NC(=S)N1CCC1)/C2=CC=CC=N2 + CS(=O)(=O)CCNCc1ccc(-c2ccc3ncnc(Nc4ccc(OCc5cccc(F)c5)c(Cl)c4)c3c2)o1 [Lapatinib] (partner 2 µM)
Method in brief: as §1

[4] = compound: C/C(=N\NC(=S)N1CCC1)/C2=CC=CC=N2 + Nc1ncn([C@H]2C[C@H](O)[C@@H](CO)O2)c(=O)n1 [Decitabine] (partner 2 µM)
Method in brief: as §1

Cell Line | relative viability ([1]; first compound 0.05 µM) | relative viability ([1]; first compound 0.1581 µM) | relative viability ([1]; first compound 0.5 µM) | relative viability ([1]; first compound 1.581 µM) | relative viability ([1]; first compound 5 µM) | relative viability ([2]; first compound 0.05 µM) | relative viability ([2]; first compound 0.1581 µM) | relative viability ([2]; first compound 0.5 µM) | relative viability ([2]; first compound 1.581 µM) | relative viability ([2]; first compound 5 µM) | relative viability ([3]; first compound 0.05 µM) | relative viability ([3]; first compound 0.1581 µM) | relative viability ([3]; first compound 0.5 µM) | relative viability ([3]; first compound 1.581 µM) | relative viability ([3]; first compound 5 µM) | relative viability ([4]; first compound 0.05 µM) | relative viability ([4]; first compound 0.1581 µM) | relative viability ([4]; first compound 0.5 µM) | relative viability ([4]; first compound 1.581 µM) | relative viability ([4]; first compound 5 µM)
201T | 0.487 | 0.871 | 0.349 | 0.241 | 0.247 | 0.287 | 0.285 | 0.273 | 0.211 | 0.233 | 0.447 | 0.578 | 0.444 | 0.447 | 0.351 | 0.553 | 0.802 | 0.348 | 0.29 | 0.28
A-427 | 0.2 | 0.191 | 0.151 | 0.154 | 0.167 | 0.188 | 0.173 | 0.159 | 0.156 | 0.178 | 0.138 | 0.149 | 0.138 | 0.115 | 0.139 | 0.182 | 0.214 | 0.194 | 0.171 | 0.17
ABC-1 | 0.349 | 0.338 | 0.301 | 0.345 | 0.438 | 0.282 | 0.342 | 0.341 | 0.288 | 0.305 | 0.475 | 0.513 | 0.495 | 0.459 | 0.456 | 0.343 | 0.373 | 0.385 | 0.381 | 0.287
BEN | 0.292 | 0.259 | 0.271 | 0.272 | 0.283 | 0.265 | 0.339 | 0.288 | 0.238 | 0.279 | 0.178 | 0.201 | 0.21 | 0.203 | 0.188 | 0.253 | 0.338 | 0.318 | 0.266 | 0.359
CAL-12T | 0.16 | 0.149 | 0.185 | 0.171 | 0.131 | 0.284 | 0.226 | 0.281 | 0.206 | 0.159 | 0.259 | 0.214 | 0.2 | 0.182 | 0.187 |  |  |  |  | 
COR-L23 | 0.107 | 0.0921 | 0.0895 | 0.0916 | 0.105 |  |  |  |  |  | 0.144 | 0.156 | 0.119 | 0.0787 | 0.101 | 0.156 | 0.149 | 0.161 | 0.106 | 0.0995
COR-L 105 | 0.365 | 0.381 | 0.374 | 0.337 | 0.318 |  |  |  |  |  | 0.375 | 0.342 | 0.375 | 0.314 | 0.286 | 0.31 | 0.413 | 0.327 | 0.306 | 0.313
Calu-6 | 0.101 | 0.133 | 0.141 | 0.118 | 0.122 |  |  |  |  |  | 0.132 | 0.146 | 0.124 | 0.128 | 0.131 |  |  |  |  | 
ChaGo-K-1 | 0.137 | 0.247 | 0.126 | 0.138 | 0.135 | 0.177 | 0.175 | 0.154 | 0.154 | 0.154 |  |  |  |  |  | 0.159 | 0.321 | 0.147 | 0.174 | 0.178
EKVX | 0.149 | 0.115 | 0.121 | 0.16 | 0.167 | 0.106 | 0.115 | 0.128 | 0.14 | 0.143 | 0.108 | 0.137 | 0.119 | 0.153 | 0.131 | 0.15 | 0.138 | 0.13 | 0.138 | 0.16
EMC-BAC-2 | 0.188 | 0.22 | 0.195 | 0.164 | 0.203 | 0.252 | 0.259 | 0.241 | 0.176 | 0.216 | 0.113 | 0.169 | 0.178 | 0.173 | 0.153 | 0.261 | 0.268 | 0.228 | 0.219 | 0.212
EPLC-272H | 0.114 | 0.13 | 0.0724 | 0.0602 | 0.131 | 0.106 | 0.104 | 0.106 | 0.0639 | 0.114 | 0.139 | 0.195 | 0.229 | 0.155 | 0.161 | 0.123 | 0.111 | 0.109 | 0.062 | 0.101
H3255 | 0.353 | 0.321 | 0.292 | 0.235 | 0.254 | 0.302 | 0.308 | 0.286 | 0.244 | 0.237 | 0.255 | 0.218 | 0.14 | 0.157 | 0.184 | 0.211 | 0.231 | 0.24 | 0.209 | 0.228
HARA | 0.433 | 0.192 | 0.13 | 0.119 | 0.13 | 0.129 | 0.199 | 0.144 | 0.104 | 0.124 | 0.102 | 0.115 | 0.155 | 0.0859 | 0.0828 | 0.229 | 0.168 | 0.153 | 0.242 | 0.164
HCC-15 | 0.299 | 0.259 | 0.103 | 0.102 | 0.101 | 0.084 | 0.084 | 0.105 | 0.113 | 0.103 | 0.082 | 0.078 | 0.0841 | 0.0904 | 0.0765 | 0.0738 | 0.16 | 0.117 | 0.0902 | 0.0924
HCC-44 | 0.863 | 0.918 | 0.541 | 0.517 | 0.446 | 0.702 | 0.573 | 0.488 | 0.445 | 0.47 | 0.292 | 0.184 | 0.177 | 0.156 | 0.232 | 0.559 | 0.544 | 0.52 | 0.551 | 0.428
HCC-78 | 0.523 | 0.379 | 0.32 | 0.249 | 0.211 | 0.327 | 0.332 | 0.226 | 0.169 | 0.174 | 0.0064 | 0.211 | 0.226 | 0.158 | 0.178 | 0.453 | 0.413 | 0.407 | 0.244 | 0.22
HCC-366 | 0.119 | 0.0248 | 0.0175 | 0.0198 | 0.0219 | 0.0319 | 0.0257 | 0.0217 | 0.0308 | 0.0241 | 0.0217 | 0.0257 | 0.0157 | 0.0217 | 0.0218 | 0.103 | 0.0378 | 0.0365 | 0.035 | 0.0275
